Test results as given in patent publication US20250288600A1, “USES OF FARNESOID X RECEPTOR AGONISTS” (priority 2022, published 2025).
“Also recorded” adds a separate entry of the source.

Assays:
[1] = test system: mouse model of alcoholic steatohepatitis; experiment: Mouse model of alcoholic steatohepatitis (ALD), Lieber-DeCarli ethanol diet, oral dosing Day 1-14; format: in vivo; details: for fibrosis as analyzed by Pico Sirius Red: 30 mpk, no fibrosis at baseline or in the vehicle group; for serum bile acids: versus vehicle treated ALD mice
From the text: The objective of this study was to assess efficacy of the test articles obeticholic acid (OCA), Compound 1 and Compound 2 on liver and intestinal pathology in a mouse model of alcoholic steatohepatitis.
• Species: Mouse • Strain: C57BL/6J (JAX #000664) • Condition: Purpose-bred, naïve • Source: Jackson Laboratories • Number of Females: 138 (119 on study+19 spares) • Target Age at the 10 weeks
Diet: 5CR4 chow until Day −26; Lieber-DeCarli liquid diet Days […] to Day 15. Upon arrival at the Testing Facility, all animals were placed on PMI Nutrition International Certified Rodent Chow No. 5CR4 ad libitum. During the chow diet phase (until Day −26), the diet in meal form may be provided to individual animals as warranted by clinical signs (e.g., broken/damaged incisors or other health changes).
On Day −26, all animals received 50 mL ethanol diet (1% v/v ethanol). The percentage of alcohol in the liquid diet was increased by 1% v/v every day until reaching 5% (v/v) on day −22 and is maintained at 5% v/v until the end of the study.
Dose Route and timing: Oral Gavage (Group 2-7) Once Daily (Day 1-14). The first day of dosing was designated as Day 1. The dose formulations were stirred continuously during dosing. The doses were given using a syringe with attached gavage cannula.
Terminal plasma and tissue samples were gathered. Plasma was analyzed for TG, TC, ALT, AST, ALP, FGF15 (LCMS), TBIL, and endotoxin.
Frozen liver samples from main study were analyzed in duplicates for the estimation of liver lipids including triglycerides and cholesterol. Liver samples were kept on dry ice until transferred to sample management and stored in a freezer set to maintain […] until analysis.
The liver and small intestine collected from all animals in Groups 1-7 (Main Study) were fixed in 10% neutral buffered formalin for 24-48 hours and transferred to 70% EtOH, stored under ambient conditions and transferred to the histopathology lab at Testing Facility.
Formalin fixed liver tissues were trimmed to slides and stained with H&E and picrosirius red stains. Slides were scored by Charles River board certified veterinarian pathologists.
Formalin fixed small intestine tissues were trimmed to slides and stained with H&E and IHC antibodies (PV-1, ZO-1 and Occludin). Slides were scored by board certified veterinarian pathologists.

[2] = higher than OCA; cited from earlier work
[3] = like ursodeoxycholic acid; cited from earlier work
[4] = promptly secreted in the bile mostly as such; cited from earlier work
[5] = test system: male rats; experiment: Irwin study (neurologic function); details: tested up to 180 mg/kg
[6] = test system: dogs; experiment: Respiratory function safety pharmacology in dogs; details: single doses up to 300 mg/kg
[7] = test system: healthy subjects; experiment: Phase 1 dose-escalation study in healthy subjects
[8] = target: T1, TGR5 (Homo sapiens, UniProt Q8TDU6); details: cited from earlier work
T1 sequence (Q8TDU6 1-330): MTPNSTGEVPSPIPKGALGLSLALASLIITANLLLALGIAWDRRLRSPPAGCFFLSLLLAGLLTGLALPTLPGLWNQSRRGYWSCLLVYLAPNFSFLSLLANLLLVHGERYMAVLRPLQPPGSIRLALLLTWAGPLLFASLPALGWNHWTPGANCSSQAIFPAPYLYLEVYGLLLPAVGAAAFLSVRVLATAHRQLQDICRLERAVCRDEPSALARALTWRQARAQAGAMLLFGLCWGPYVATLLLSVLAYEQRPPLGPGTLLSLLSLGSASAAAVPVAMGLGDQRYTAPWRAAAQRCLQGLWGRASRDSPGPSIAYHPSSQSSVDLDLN

Structure (SMILES)	survival (in words) ([1]; 10 mg/kg and 30 mg/kg groups)	steatosis (graded 1-5 by a pathologist) ([1]; 10 mpk group, liver histology)	fibrosis as analyzed by Pico Sirius Red [1]	serum bile acids ([1]; both doses)	water solubility relative to obeticholic acid (OCA) [2]	critical micellular concentration [3]	hepatic residence time [4]	neurologic function [5]	respiratory function [6]	tolerability ([7]; 5 mg once daily for 14-days)	adverse events ([7]; doses less than 50 mg, single or repeat doses, healthy subjects)	serum bile acids ([1]; high dose)	bilirubin ([1]; terminal plasma)	serum ALP ([1]; terminal plasma)	activity on TGR5 [8]	% Alive ([1]; Dose 30 mkd, PO QD Day 1-14, includes animals for PK)
CC[C@H]1[C@@H](O)[C@@H]2[C@H]([C@@H](O)C[C@]3(C)[C@@H]([C@H](C)CCC(=O)O)CC[C@@H]23)[C@@]2(C)CC[C@@H](O)C[C@@H]12 [Compound 1, 3a,7a,11β-trihydroxy-6α-ethyl-5β-cholan-24-oic acid]	improved survival better than OCA; also recorded: greatly improved survival	close to statistical significance	minimal increase in fibrosis	significantly lowered	16 fold	high	very low	did not alter neurologic function	not affected	well tolerated	no AEs of clinical concern	–	–	–	–	–
CC[C@H]1[C@@H](O)C2C3CC[C@H]([C@H](C)CCC(=O)O)[C@@]3(C)C[C@H](O)C2[C@@]2(C)CCCC[C@@H]12 (stereo partly drawn) [Compound 2]	–	–	minimal increase in fibrosis	–	–	–	–	–	–	–	–	significantly lowered	decreased	increased	no activity	–
CC[C@H]1[C@@H](O)[C@@H]2[C@H](CC[C@]3(C)[C@@H]([C@H](C)CCC(=O)O)CC[C@@H]23)[C@@]2(C)CC[C@@H](O)C[C@@H]12 [OCA, obeticholic acid, reference compound]	–	–	minimal increase in fibrosis	–	–	–	–	–	–	–	–	–	–	–	–	53%
